The text below walks through data of patent US20100255580A1, “Differentiation of Human Embryonic Stem Cells” (LIFESCCAN, INC., priority 2007, published 2010).

The assay deals with human embryonic stem cells (H9, H7) on MATRIGEL
As to the kind of experiment: Real-time PCR of definitive endoderm markers, DE protocol on […] or fibronectin (feeder-free). The class given is cell-based. The note with it: for expression of definitive endoderm markers: with 50 ng/ml of AA, 20 ng/ml Wnt-3A or 100 nM GSK-3B inhibitor IX. As to the method: Real-time PCR amplification and quantitative analysis.
Final data were expressed relative to a calibrator sample.
Differentiation of embryonic stem cells to definitive endoderm was carried out as previously described in Nature Biotechnology 23, 1534-1541 (December 2005). […] In all subsequent examples unless otherwise noted, this treatment regimen will be referred to as the definite endoderm (DE) protocol. In parallel, H9, H7, or H1 cells cultured on MEF feeders were also exposed to the same DE protocol outlined above.
At day 5, the cultures were analyzed by FACS for CXCR4, E-cadherin, CD9, CD99, and N-cadherin (CD56) expression and by real time PCR for SOX-17, SOX-7, Alpha-fetal protein (AFP), CXCR4, Brychyury (Bry), gooscecoid (GSC), HNF-3 beta, and GATA4. AFP and SOX-7 are regarded as visceral endoderm markers while GATA4, HNF-3beta and SOX-17 represent definite endoderm markers and GSC, Bry, and CXCR4 represent markers of primitive streak.
In some of the cultures 20 ng/ml Wnt-3a (Catalog #1324-WN-002, R&D Systems, MN), 20 ng/ml Wnt-5a (Catalog #654-WN-010, R&D Systems, MN), 25 ng/ml Wnt-7a (Catalog #3008-WN-025, R&D Systems, MN), or 25 ng/ml Wnt-5b (Catalog #3006-WN-025, R&D Systems, MN) was added throughout the five day treatment. FIG. 24 depicts phase contrast images of H9P46 definitive endoderm culture in the presence of high concentration of (a) AA or (b) AA+20 ng/ml Wnt-3a. FIG. 25 depicts the expression of CXCR4 by FACS at day 5 for H7P44, and H9P46 lines cultured on […] (1:30 dilution) and exposed to the DE protocol+Wnt-3a (FIG. 25, panels b and d) and −Wnt-3a (FIG. 25, panels a and c).
Control cultures were not treated with Wnt-3a. FIG. 27, panel a depicts the expression of CXCR4 by FACS at day 5 in the absence of Wnt-3a, b) 10 ng/ml Wnt-3a, c) 20 ng/ml Wnt-3a and d) 50 ng/ml Wnt-3a. In the absence of Wnt-3a the expression of CXCR4 was very low. […] Real-time PCR results (FIG. 28, panel a) also confirm this finding.
In a separate study, H9 p52 cells were plated on 1:30 low growth factor […]™. For the first 2 days of the DE protocol a range of Wnt3A doses was used: 10 ng/ml, 5 ng/ml and 1 ng/ml. […] The number of cells at the end of the experiment is noted in FIG. 28, panel c.
In order to confirm that the effect of Wnt-3a was through the Wnt pathway, a GSK-3 inhibitor was used to activate the downstream targets of Wnt, such as beta catenin. […] FIG. 29, panel a depicts the expression of CXCR4 by FACS at day 5 in the absence of Wnt-3a or GSK-3B inhibitor, b) +20 ng/ml Wnt-3a, c) +1000 nM GSK-3B inhibitor IX, d) +500 nM GSK-3B inhibitor IX, e) +100 nM GSK-3B inhibitor IX, f) +10 nM GSK-3B inhibitor IX, g) +100 nM GSK-3B inhibitor IX for days 1-2, and h) +10 nM GSK-3B inhibitor IX for days 1-2.
FIG. 31 panels a-d is for H9P49 cells and panels e-f is for H1P46 cells.
Results are expressed as fold increase over untreated cells. […] Results are expressed as fold increase over untreated cells.
H9P55 cells were grown and differentiated on human fibronectin or regular growth factor […]™ (BD Biosciences). lml of DMEM/F12 (Invitrogen/GIBCO) containing 1 ug/ml of human fibronectin (R&D systems, MN) was added to each well of 6 well tissue culture treated dish. Alternatively, regular growth factor […]™ was diluted 1:10 in DMEM/F12 and 1 ml of diluted […]™ was added to each well of 6 well tissue culture treated dish. Cells were passed with collagenase. […] Real-time PCR results (FIG. 39) confirm that formation of definitive endoderm was equivalent on fibronectin and […]™ coated plates.
To determine if the addition of Wnt-3a was causing the increase in differentiation, an inhibitor of Wnt-3 signaling was added to the cultures. […] H9 cells were cultured on plates coated with Growth Factor Reduced […] at a 1:30 dilution. The plates were coated with […] for 1 hr at room temperature. […]
A general note: Quantitative PCR measures a nucleic acid by following its amplification.

For `O=C1Nc2cc(Br)ccc2/C1=C1/Nc2ccccc2/C1=N\O` [GSK-3B inhibitor IX, reference compound], where the note is “H9P49”, the “expression of definitive endoderm markers” value was “robust expression”.
Take “Activin A: a member of the TGFβ superfamily; R&D Systems; Group 2 = Activin A (100 ng/ml)”: under “H9P49, with Wnt-3a or GSK-3B inhibitor IX”, the “outcome of lower doses of activin A” value is reported as “formation of extraembryonic endoderm”.
Wnt-3a: for the setting “H7 and H9, low serum+AA+/−Wnt ligands, 5 days”, the “definitive endoderm markers (real-time PCR)” value was “significant upregulation”. In addition, the “expression of definitive endoderm markers” value (H9P49) is recorded as “robust expression”. Besides, where the note is “H9 p52, for 2 days”, the “Wnt3a dose sufficient to reach optimal cell expansion and definitive endoderm differentiation” value worked out at 10 ng/mL.
